The target in the assay is T1, human vasopressin V1b receptor (Homo sapiens, UniProt P47901).
T1 construct: expressed in transfected cells; host or cells: CHO-K1 (cell line hV1b-3H2_CHO), membrane preparation
T1 sequence (P47901 1-424): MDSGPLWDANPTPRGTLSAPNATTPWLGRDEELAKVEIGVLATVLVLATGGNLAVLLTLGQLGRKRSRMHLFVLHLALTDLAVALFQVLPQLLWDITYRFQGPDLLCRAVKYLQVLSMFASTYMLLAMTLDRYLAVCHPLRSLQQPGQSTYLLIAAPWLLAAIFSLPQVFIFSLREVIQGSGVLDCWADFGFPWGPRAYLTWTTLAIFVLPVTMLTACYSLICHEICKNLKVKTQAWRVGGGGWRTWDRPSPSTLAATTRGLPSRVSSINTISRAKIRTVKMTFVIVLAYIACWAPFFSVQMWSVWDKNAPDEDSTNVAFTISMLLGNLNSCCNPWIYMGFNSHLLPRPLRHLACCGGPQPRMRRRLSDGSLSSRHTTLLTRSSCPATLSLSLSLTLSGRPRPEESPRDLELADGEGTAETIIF
Kind of assay: Vasopressin V1b receptor binding assay. The note with it: membranes from CHO-K1 cells with stably expressed human V1b receptors; displacement of 1.5 nM 3H-AVP; read-out: V1b receptor affinity (affinity constant Ki). In short, it runs like this: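 Ki values come from nonlinear regression of triplicate scintillation counts after filtration. Test compound (2% DMSO in the mixture) and radioligand were incubated 60 min at room temperature with human V1b membranes in pH 7.4 Tris buffer with 10 mM MgCl2 and 0.1% BSA. Nonspecific binding was set with 1 uM AVP.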

Structures are written as SMILES.

The term Ki denotes a measure of affinity in units of concentration, obtained from inhibition or displacement.

In the case of `CCCN1CCN([C@H]2CCN(C(=O)C(c3ccccc3)n3c(=O)n(S(=O)(=O)c4ccc(OCC(F)F)cc4)c4ccc(C#N)cc43)C2)CC1` (stereo partly drawn) [Example 233, 1-[4-(2,2-Difluoro-ethoxy)-benzenesulfonyl]-2-oxo-3-{2-oxo-1-phenyl-2-[(S)-3-(4-propyl-piperazin-1-yl)-pyrrolidin-1-yl]-ethyl}-2,3-dihydro-1H-benzoimidazole-5-carbonitrile], the inhibition constant Ki is less than 100 nM.
As for `CCCN1CCN([C@H]2CCN(C(=O)C(c3ccccc3)n3c(=O)n(S(=O)(=O)c4ccc(OCC(F)(F)F)cc4)c4ccc(C#N)cc43)C2)CC1` (stereo partly drawn) [Example 234, 2-oxo-3-{2-oxo-1-phenyl-2-[(S)-3-(4-propyl-piperazin-1-yl)-pyrrolidin-1-yl]-ethyl}1-[4-(2,2,2-trifluoro-ethoxy)-benzenesulfonyl]-2,3-dihydro-1H-benzoimidazole-5-carbonitrile], the figure is 100 to 500 nM; as for `CCCN1CCN(C[C@H]2CCN(C(=O)C(c3ccccc3)n3c(=O)n(S(=O)(=O)c4ccc(OC)cc4)c4ccc(C#N)cc43)C2)CC1` (stereo partly drawn) [Example 235, 1-(4-Methoxy-benzenesulfonyl)-2-oxo-3-{2-oxo-1-phenyl-2-[(R)-3-(4-propylpiperazin-1-ylmethyl)-pyrrolidin-1-yl]-ethyl}-2,3-dihydro-1H-benzoimidazole-5-carbonitrile; compound with trifluoroacetic acid], less than 100 nM; as for `COc1ccc(S(=O)(=O)n2c(=O)n(C(C(=O)N3CC[C@H](CN4CCN(C)CC4)C3)c3ccccc3)c3cc(C#N)ccc32)cc1` (stereo partly drawn) [Example 236, 1-(4-Methoxy-benzenesulfonyl)-3-{2-[(R)-3-(4-methyl-piperazin-1-ylmethyl)-pyrrolidin-1-yl]-2-oxo-1-phenyl-ethyl}-2-oxo-2,3-dihydro-1H-benzoimidazole-5-carbonitrile; compound with trifluoroacetic acid], less than 100 nM.
Take `CCN1CCN(C[C@H]2CCN(C(=O)C(c3ccccc3)n3c(=O)n(S(=O)(=O)c4ccc(OC)cc4)c4ccc(C#N)cc43)C2)CC1` (stereo partly drawn) [Example 237, 3-{2-[(R)-3-(4-Ethyl-piperazin-1-ylmethyl)-pyrrolidin-1-yl]-2-oxo-1-phenyl-ethyl}-1-(4-methoxy-benzenesulfonyl)-2-oxo-2,3-dihydro-1H-benzoimidazole-5-carbonitrile; compound with trifluoroacetic acid]: the Ki is less than 100 nM.
As for `COc1ccc(S(=O)(=O)n2c(=O)n(C(C(=O)N3CC[C@H](CN4CCN(C(C)C)CC4)C3)c3ccccc3)c3cc(C#N)ccc32)cc1` (stereo partly drawn) [Example 238, 3-{2-[(R)-3-(4-Isopropyl-piperazin-1-ylmethyl)-pyrrolidin-1-yl]-2-oxo-1-phenylethyl}-1-(4-methoxy-benzenesulfonyl)-2-oxo-2,3-dihydro-1H-benzoimidazole-5-carbonitrile; compound with trifluoroacetic acid], the figure is less than 100 nM; as for `COc1ccc(S(=O)(=O)n2c(=O)n(C(C(=O)N3CCC(N)CC3)c3ccccc3)c3cc(C#N)ccc32)cc1` (centres unmarked) [Example 239, 3-[2-(4-Amino-piperidin-1-yl)-2-oxo-1-phenyl-ethyl]-1-(4-methoxybenzenesulfonyl)-2-oxo-2,3-dihydro-1H-benzoimidazole-5-carbonitrile], 500 to 10000 nM; as for `COc1ccc(S(=O)(=O)n2c(=O)n(C(C(=O)N3CCC[C@H](N)C3)c3ccccc3)c3cc(C#N)ccc32)cc1` (stereo partly drawn) [Example 240, 3-[2-((S)-3-Amino-piperidin-1-yl)-2-oxo-1-phenyl-ethyl]-1-(4-methoxybenzenesulfonyl)-2-oxo-2,3-dihydro-1H-benzoimidazole-5-carbonitrile], 100 to 500 nM.
Then `COc1ccc(S(=O)(=O)n2c(=O)n(C(C(=O)N3CCC[C@@H](N)C3)c3ccccc3)c3cc(C#N)ccc32)cc1` (stereo partly drawn) [Example 241, 3-[2-((R)-3-Amino-piperidin-1-yl)-2-oxo-1-phenyl-ethyl]-1-(4-methoxybenzenesulfonyl)-2-oxo-2,3-dihydro-1H-benzoimidazole-5-carbonitrile], with 500 to 10000 nM; and `COc1ccc(S(=O)(=O)n2c(=O)n(C(C(=O)N3CC[C@H](NCc4c[nH]cn4)C3)c3ccccc3)c3cc(C#N)ccc32)cc1` (stereo partly drawn) [Example 242, 3-(2-{(S)-3-[(1H-Imidazol-4-ylmethyl)-amino]-pyrrolidin-1-yl}-2-oxo-1-phenylethyl)-1-(4-methoxy-benzenesulfonyl)-2-oxo-2,3-dihydro-1H-benzoimidazole-5-carbonitrile; compound with trifluoroacetic acid], with less than 100 nM.
As for `COc1ccc(S(=O)(=O)n2c(=O)n(C(C(=O)N3CC[C@H](NC4CCN(C(=O)OC(C)(C)C)CC4)C3)c3ccccc3)c3cc(C#N)ccc32)cc1` (stereo partly drawn) [Example 243, 4-((S)-1-{2-[6-Cyano-3-(4-methoxy-benzenesulfonyl)-2-oxo-2,3-dihydrobenzoimidazol-1-yl]-2-phenyl-acetyl}-pyrrolidin-3-ylamino)-piperidine-1-carboxylic acid tert-butyl ester], the figure is 500 to 10000 nM.
Turning to `COc1ccc(S(=O)(=O)n2c(=O)n(C(C(=O)N3CC[C@H](NC4CCN(C(C)(C)C)CC4)C3)c3ccccc3)c3cc(C#N)ccc32)cc1` (stereo partly drawn) [Example 244, 3-{2-[(S)-3-(1-tert-Butyl-piperidin-4-ylamino)-pyrrolidin-1-yl]-2-oxo-1-phenylethyl}-1-(4-methoxy-benzenesulfonyl)-2-oxo-2,3-dihydro-1H-benzoimidazole-5-carbonitrile], the Ki was less than 100 nM.
Consider `COc1ccc(S(=O)(=O)n2c(=O)n(C(C(=O)N3CC[C@H](NC4CCN(CCF)CC4)C3)c3ccccc3)c3cc(C#N)ccc32)cc1` (stereo partly drawn) [Example 245, 3-(2-{(S)-3-[1-(2-Fluoro-ethyl)-piperidin-4-ylamino]-pyrrolidin-1-yl}-2-oxo-1-phenyl-ethyl)-1-(4-methoxy-benzenesulfonyl)-2-oxo-2,3-dihydro-1H-benzoimidazole-5-carbonitrile], for which the Ki is less than 100 nM.
Regarding `COc1ccc(S(=O)(=O)n2c(=O)n(C(C(=O)N3CCC[C@H](NC4CCN(C)CC4)C3)c3ccccc3)c3cc(C#N)ccc32)cc1` (stereo partly drawn) [Example 246, 1-(4-Methoxy-benzenesulfonyl)-3-{2-[(S)-3-(1-methyl-piperidin-4-ylamino)-piperidin-1-yl]-2-oxo-1-phenyl-ethyl}-2-oxo-2,3-dihydro-1H-benzoimidazole-5-carbonitrile], the inhibitory constant (Ki) lay within 100 to 500 nM.
Take `COc1ccc(S(=O)(=O)n2c(=O)n(C(C(=O)N3CCC[C@H](NC4CCN(C(C)C)CC4)C3)c3ccccc3)c3cc(C#N)ccc32)cc1` (stereo partly drawn) [Example 247, 3-{2-[(S)-3-(1-Isopropyl-piperidin-4-ylamino)-piperidin-1-yl]-2-oxo-1-phenylethyl}-1-(4-methoxy-benzenesulfonyl)-2-oxo-2,3-dihydro-1H-benzoimidazole-5-carbonitrile]: the Ki is less than 100 nM.
As for `COc1ccc(S(=O)(=O)n2c(=O)n(C(C(=O)N3CCC[C@@H](NC4CCN(C)CC4)C3)c3ccccc3)c3cc(C#N)ccc32)cc1` (stereo partly drawn) [Example 248, 1-(4-Methoxy-benzenesulfonyl)-3-{2-[(R)-3-(1-methyl-piperidin-4-ylamino)-piperidin-1-yl]-2-oxo-1-phenyl-ethyl}-2-oxo-2,3-dihydro-1H-benzoimidazole-5-carbonitrile], the figure is 100 to 500 nM.
With `COc1ccc(S(=O)(=O)n2c(=O)n(C(C(=O)N3CCC[C@@H](NC4CCN(C(C)C)CC4)C3)c3ccccc3)c3cc(C#N)ccc32)cc1` (stereo partly drawn) [Example 249, 3-{2-[(R)-3-(1-Isopropyl-piperidin-4-ylamino)-piperidin-1-yl]-2-oxo-1-phenylethyl}-1-(4-methoxy-benzenesulfonyl)-2-oxo-2,3-dihydro-1H-benzoimidazole-5-carbonitrile], the Ki is less than 100 nM.
As for `COc1ccc(S(=O)(=O)n2c(=O)n(C(C(=O)N3CC[C@H](NC(=O)C4CCN(C)CC4)C3)c3ccccc3)c3cc(C#N)ccc32)cc1` (stereo partly drawn) [Example 252, 1-Methyl-piperidine-4-carboxylic acid ((S)-1-{2-[6-cyano-3-(4-methoxybenzenesulfonyl)-2-oxo-2,3-dihydro-benzoimidazol-1-yl]-2-phenyl-acetyl}-pyrrolidin-3-yl)-amide; compound with trifluoroacetic acid], the figure is 100 to 500 nM.
Then `COc1ccc(S(=O)(=O)n2c(=O)n(C(C(=O)N3CC[C@H](Nc4ccncc4)C3)c3ccccc3)c3cc(C#N)ccc32)cc1` (stereo partly drawn) [Example 253, 1-(4-Methoxy-benzenesulfonyl)-2-oxo-3-{2-oxo-1-phenyl-2-[(S)-3-(pyridine-4-ylamino)-pyrrolidin-1-yl]-ethyl}-2,3-dihydro-1H-benzoimidazole-5-carbonitrile; compound with trifluoroacetic acid], with less than 100 nM; and `COc1ccc(S(=O)(=O)n2c(=O)n(C(C(=O)N3CC[C@H](Nc4ccnc(C)c4)C3)c3ccccc3)c3cc(C#N)ccc32)cc1` (stereo partly drawn) [Example 254, 1-(4-Methoxy-benzenesulfonyl)-3-{2-[(S)-3-(2-methyl-pyridine-4-ylamino)-pyrrolidin-1-yl]-2-oxo-1-phenyl-ethyl}-2-oxo-2,3-dihydro-1H-benzoimidazole-5-carbonitrile; compound with trifluoroacetic acid], with 100 to 500 nM.

For the origin of these results see patent US8791148B2, “Substituted benzimidazolone derivatives, medicaments comprising them and their use” (AbbVie Deutschland GmbH & Co. KG, priority 2006, dated 2014).
